The source of these data is US12216119B2, “IGF-1 analysis, adjustment and disease management of non-neurological and/or neurological conditions” (THE CGP LAB LIMITED, priority 2017, dated 2025).

The nature of experiment [1]: Vitamin C added to BCA: efficacy of BCA to increase cGP levels. The settings on record: added to BCA as ascorbic acid.
Another experiment has as its system hypertensive rats. The following applies: cited from earlier work.
Experiment [2] deals with rats with ischemic brain injury. The settings on record: cited from earlier work.

For the molecule `O=C1O[C@H]([C@@H](O)CO)C(O)=C1O` [Vitamin C, ascorbic acid], in experiment [1], the “effect on the efficacy of BCA to increase the levels of cGP” value is “negative effect”.
For the molecule `O=C1NCC(=O)N2CCC[C@@H]12` [cGP, cyclic glycine-proline], in the experiment on hypertensive rats, the systemic blood pressure result is reported as “normalises the systemic blood pressure”. For the same molecule, in experiment [2], the ischemic brain injury result is recorded as “prevents ischemic brain injury”.
